According to patent publication US9687545B2, “Nonspecific immunostimulator composition, method of preparation the same, and its use” (BARODON-S.F.CORP., priority 2014, dated 2017):
Like-named read-outs stand apart in the source and are kept apart here.

System: highly pathogenic AIV H5N1
Type: in vivo, BALB/C mice
Conditions: for body weight change after challenge: challenged groups treated with BARODON or TamiFlu, 2 weeks

## CCOC(=O)C1=C[C@@H](OC(CC)CC)[C@H](NC(C)=O)[C@@H](N)C1 [TamiFlu]
TamiFlu 10 mg/kg/day orally for 5 days after challenge, by D12
  survival rate: 75%
  body weight change after challenge: none of the groups treated with TamiFlu and BARODON exhibited weight gain after challenge
Listed as TamiFlue
  body weight change after challenge: no difference in weight change between groups
